For 28 molecules, EC50 and CC50 results are on record in patent publication US20250326725A1, “PI4-Kinase Inhibitors and Methods of Using the Same” (The Board of Trustees of the Leland Stanford Junior …, priority 2019, published 2025).

The test system of one data set is HCV. Kind of data set: Anti-HCV assay (EC50). The note with it: Hepatitis C virus, read-out: HCV EC50. Type of data set: cell-based. The protocol:
Anti-HCV assay: Anti-HCV assays are performed as described by Cho et al. “Identification of a class of HCV inhibitors directed against the nonstructural protein NS4B.” Sci. Transl. Med. 2011; 2(15):15ra6.

The next data set relates to EV71. Kind of data set: EV71 antiviral assay (EC50). It counts as cell-based, Enterovirus 71. The note with it: Enterovirus A, EV71.
Data set [1] can be described thus: Cell toxicity (CC50) in HRV assay. The following applies: human, HRV CC50.
The nature of data set [2]: Cell toxicity (CC50) in EV71 assay. The note with it: EV71 CC50.
A further data set relates to EV68. Kind of data set: EV68 antiviral assay (EC50). It counts as cell-based.
Data set [3] can be described thus: Cell toxicity (CC50) in EV68 assay. The note with it: EV68 CC50.

The structures appear in SMILES notation. pEC50: −log10 of the molar value.

Broadly, the pEC50 is the EC50 on a negative log10 scale, so that one unit is a factor of ten. In general, CC50 refers to the concentration that lowers cell viability or growth by half. The low end stands for greater toxicity to the cells, the high end for lower toxicity to the cells.

For `COc1ccc(-c2sc(NC(C)(C)C3CCOCC3)nc2C)cc1S(=O)(=O)Nc1ccc(Br)nc1F` [Compound S-2], the figures for the pEC50 with HCV and with EV71 were 8.64 and 9.10, respectively. Besides, the figures for the CC50 in data set [1] and in data set [2] were 33.4 µM and 66.6 µM, respectively.

For the molecule `COc1ccc(-c2sc(NC(C)(C)C3CCOCC3)nc2C)cc1S(=O)(=O)NC1CCC(O)CC1` (stereo not drawn) [Compound S-5], the negative-log EC50 (pEC50) in the data set with HCV is 8.77; with EV71 it was 9.10. Besides, the CC50 is 57 µM in data set [1] and 47.2 µM in data set [2].

Take `COc1ccc(-c2sc(NC(C)(C)C3CCOCC3)nc2C)cc1S(=O)(=O)Nc1ccc(F)cc1C` [Compound S-8]: the negative-log EC50 (pEC50) in the data set on HCV is 9.10; with EV71 it was 9.52. Further, the half-maximal cytotoxic concentration (CC50) amounted to 8.47 µM in data set [1] and 91.9 µM in data set [2].

Regarding `COc1ccc(-c2sc(NC(C)(C)C3CCOCC3)nc2C)cc1S(=O)(=O)NC1CCN(C(=O)OC(C)(C)C)CC1` [Compound S-9], the negative logarithm of the EC50 (pEC50) with HCV is 8.30; in the data set with EV71 it was 8.32; in the data set on EV68 it was 7.54. The CC50 was 100 µM in data set [1], 69.3 µM in data set [2] and 100 µM in data set [3].

On to `COc1ccc(-c2sc(NC(C)(C)C3CCOCC3)nc2C)cc1S(=O)(=O)NC1CCS(=O)(=O)CC1` [Compound S-11], for which the negative logarithm of the EC50 (pEC50) was 7.24 in the data set with HCV, 8.14 with EV71 and 5.42 in the data set with EV68. In addition, the CC50 in data set [1] was 40.7 µM; in data set [2] it was 26 µM; in data set [3] it was 43.3 µM.

In the case of `COc1ccc(-c2sc(NC(C)(C)C3CCOCC3)nc2C)cc1S(=O)(=O)NC1CCN(C(C)=O)CC1` [Compound S-12], the negative-log EC50 (pEC50) in the data set on HCV was 7.76; with EV71 it was 8.39; with EV68, 6.97. Also, the CC50 in data set [1] was 65.9 µM; in data set [2], 53.8 µM; in data set [3], 66.2 µM.

For the molecule `COc1ccc(-c2sc(NC(C)(C)C3CCOCC3)nc2C)cc1S(=O)(=O)NC1CCN(S(C)(=O)=O)CC1` [Compound S-13], the figures for the pEC50 in the data set on HCV, in the data set on EV71 and in the data set on EV68 were 8.09, 8.89 and 7.41, respectively. Further, the CC50 in data set [1] was 102 µM; in data set [2] it was 99.4 µM; in data set [3], 102 µM.

As for `COc1ccc(-c2sc(NC(C)(C)C3CCOCC3)nc2C)cc1S(=O)(=O)Nc1cccnc1C(F)(F)F` [Compound S-15], the pEC50 in the data set on HCV is 7.09; in the data set on EV71 it was 7.19; in the data set with EV68, 6.47. For the same molecule, the 50% cytotoxic concentration (CC50) in data set [1] worked out at 100 µM; in data set [2] it was 100 µM; in data set [3] it was 63.7 µM.

For `COc1ccc(-c2sc(NC3(C4CCOCC4)CC3)nc2C)cc1S(=O)(=O)Nc1cccnc1C` [Compound S-16], the pEC50 in the data set with HCV is 6.17; in the data set on EV71 it was 6.25; in the data set with EV68, 5.68. Further, the half-maximal cytotoxic concentration (CC50) stood at 38.3 µM in data set [1], 21.2 µM in data set [2] and 39.2 µM in data set [3].

Turning to `COc1ccc(-c2sc(NC(C)(C)C3CCOCC3)nc2C)cc1S(=O)(=O)Nc1c(C)ncnc1C` [Compound S-17], the results for the pEC50 in the data set on HCV, in the data set on EV71 and in the data set on EV68 were 7.97, 8.43 and 7.59, respectively. The CC50 in data set [1] was 100 µM; in data set [2] it was 99.9 µM; in data set [3], 100 µM.

Regarding `COc1ccc(-c2sc(NC(C)(C)C3CCOCC3)nc2C)cc1S(=O)(=O)Nc1cccnc1OC` [Compound S-18], the pEC50 in the data set on HCV was 7.92; with EV71, 8.36; in the data set on EV68 it was 7.85. For the same molecule, the cytotoxic concentration (CC50) in data set [1] came out at 62.1 µM; in data set [2], 43.2 µM; in data set [3], 80 µM.

As for `COc1ccc(-c2sc(NC3(C4CCOCC4)CC3)nc2C)cc1S(=O)(=O)Nc1ccccc1Cl` [Compound S-19], the negative logarithm of the EC50 (pEC50) was 7.50 in the data set with HCV, 7.80 with EV71 and 4.66 in the data set with EV68. In addition, the figures for the CC50 in data set [1], in data set [2] and in data set [3] were 37.7 µM, 18.3 µM and 39.4 µM, respectively.

Take `COc1ccc(-c2sc(NC(C)(C)C3CCOCC3)nc2C)cc1S(=O)(=O)NC1CCN(C(=O)OC(F)(F)F)CC1` [Compound S-20]: the pEC50 in the data set with HCV is 7.59; in the data set with EV71, 8.44; in the data set with EV68, 7.29. In addition, the CC50 in data set [1] was 49.4 µM; in data set [2] it was 18.9 µM; in data set [3] it was 51.6 µM.

Consider `COc1ccc(-c2sc(NC(C)(C)C3CCN(C(C)=O)CC3)nc2C)cc1S(=O)(=O)Nc1cccnc1C` [Compound S-21], for which the pEC50 in the data set on HCV is 8.62; in the data set on EV71 it was 8.51; in the data set with EV68, 7.97. Also, the CC50 in data set [1] stood at 87.6 µM; in data set [2] it was 91.3 µM; in data set [3], 94.8 µM.

As for `COc1ccc(-c2sc(NC(C)(C)C3CCOCC3)nc2C)cc1S(=O)(=O)Nc1c(F)cccc1CO` [Compound S-22], the results for the pEC50 in the data set with HCV, in the data set with EV71 and in the data set on EV68 were 8.57, 9.10 and 8.32, respectively. Besides, the results for the CC50 in data set [1], in data set [2] and in data set [3] were 15.5 µM, 16.5 µM and 19.3 µM, respectively.

In the case of `COc1ccc(-c2sc(NC(C)(C)C3CCOCC3)nc2C)cc1S(=O)(=O)Nc1cncnc1C` [Compound S-23], the pEC50 is 6.86 in the data set with HCV, 7.31 in the data set with EV71 and 6.10 in the data set with EV68. The CC50 was determined as 100 µM in data set [1], 100 µM in data set [2] and 66.1 µM in data set [3].

For `COc1ccc(-c2sc(NC(C)(C)C3CCOCC3)nc2C)cc1S(=O)(=O)Nc1ncc[nH]1` [Compound S-24], the pEC50 with HCV was 8.43; in the data set on EV71, 8.34; with EV68, 7.95. The figures for the 50% cytotoxic concentration (CC50) in data set [1], in data set [2] and in data set [3] were 9.62 µM, 73 µM and 13.4 µM, respectively.

With `COc1ccc(-c2sc(NC(C)(C)C3CCOCC3)nc2C)cc1S(=O)(=O)Nc1ncccc1C` [Compound S-25], the pEC50 in the data set on HCV is 7.69; in the data set with EV71, 7.85; in the data set with EV68, 7.03. Besides, the CC50 is 24.8 µM in data set [1], 90.7 µM in data set [2] and 24 µM in data set [3].

Take `COc1ccc(-c2sc(NC(C)(C)C3CCOCC3)nc2C)cc1S(=O)(=O)Nc1ccncc1C(F)(F)F` [Compound S-26]: the pEC50 was 7.74 with HCV, 8.64 in the data set on EV71 and 5.85 with EV68. Besides, the figures for the CC50 in data set [1], in data set [2] and in data set [3] were 38.7 µM, 88.7 µM and 39.1 µM, respectively.

Consider `COc1ccc(-c2sc(NC(C)(C)C3CCOCC3)nc2C)cc1S(=O)(=O)Nc1cccc2[nH]cc(Br)c12` [Compound S-27], for which the pEC50 in the data set on HCV is 8.64; with EV71, 8.44; in the data set with EV68 it was 8.23. Besides, the CC50 stood at 1.41 µM in data set [1], 6.23 µM in data set [2] and 1.76 µM in data set [3].

`COc1ccc(-c2sc(NC(C)(C)C3CCOCC3)nc2C)cc1S(=O)(=O)Nc1c(C)cc(F)cc1F` [Compound S-28]: the results for the pEC50 with HCV, in the data set on EV71 and with EV68 were 8.31, 8.38 and 8.04, respectively. Besides, the CC50 in data set [1] came to 87.4 µM; in data set [2], 100 µM; in data set [3], 77.6 µM.

In the case of `COc1ccc(-c2sc(NC(C)(C)C3CCOCC3)nc2C)cc1S(=O)(=O)Nc1nccn1C` [Compound S-29], the figures for the pEC50 in the data set on HCV, with EV71 and in the data set on EV68 were 8.24, 8.01 and 7.41, respectively. Besides, the cytotoxic concentration (CC50) amounted to 98.7 µM in data set [1], 100 µM in data set [2] and 102 µM in data set [3].

Take `COc1ccc(-c2sc(NC(C)(C)C3CCOCC3)nc2C)cc1S(=O)(=O)Nc1ccc(F)cc1C(F)F` [Compound S-30]: the pEC50 in the data set with HCV was 7.95; in the data set on EV71 it was 8.66; in the data set on EV68 it was 7.23. Moreover, the CC50 in data set [1] is 3.79 µM; in data set [2], 20.2 µM; in data set [3] it was 6.45 µM.

For `COc1ccc(-c2sc(NC(C)(C)C3CCOCC3)nc2C)cc1S(=O)(=O)Nc1c(F)cccc1C(F)F` [Compound S-31], the negative logarithm of the EC50 (pEC50) in the data set with HCV is 9.30; in the data set with EV71 it was 9.70; in the data set on EV68, 9.10. In addition, the results for the CC50 in data set [1], in data set [2] and in data set [3] were 52.3 µM, 70.6 µM and 61.8 µM, respectively.

Regarding `COc1ccc(-c2oc(NC(C)(C)c3ccccc3)nc2C)cc1S(=O)(=O)Nc1cccnc1C` [Compound S-33], the negative-log EC50 (pEC50) with HCV was 10.00; in the data set on EV71 it was 10.00; in the data set with EV68, 9.15. For the same molecule, the CC50 in data set [1] turned out to be 30.5 µM; in data set [2] it was 71.3 µM; in data set [3], 5.23 µM.

On to `COc1ccc(-c2sc(NC(C)(C)c3ncccn3)nc2C)cc1S(=O)(=O)Nc1c(C)cccc1F` [Compound S-34], for which the results for the pEC50 with HCV, in the data set on EV71 and in the data set with EV68 were 9.00, 8.74 and 8.17, respectively. The half-maximal cytotoxic concentration (CC50) in data set [1] turned out to be 19.4 µM; in data set [2] it was 100 µM; in data set [3], 22.1 µM.

On to `COc1ccc(-c2sc(NC(C)(C)c3ncccn3)nc2C)cc1S(=O)(=O)Nc1ccccc1C(F)(F)F` [Compound S-35], for which the pEC50 was 9.70 with HCV, 10.00 with EV71 and 9.22 in the data set on EV68. Besides, the CC50 in data set [1], in data set [2] and in data set [3] was 100 µM throughout.

Regarding `COC(=O)N1CCC(NS(=O)(=O)c2cc(-c3sc(NC(C)(C)c4ccccc4)nc3C)ccc2OC)CC1` [Compound S-36], the figures for the negative logarithm of the EC50 (pEC50) in the data set with HCV, in the data set on EV71 and in the data set on EV68 were 10.00, 10.00 and 9.15, respectively. Further, the results for the CC50 in data set [1], in data set [2] and in data set [3] were 30.5 µM, 71.3 µM and 5.23 µM, respectively.
